Reference: patent US20210292296A1, “1,2,4-Trioxane compounds and compositions comprising the same for use in the treatment of COVID-19” (priority 2020, published 2021)

Experiments:
SARS-CoV-2 [1] = experiment: Pretreatment screening, SARS-CoV-2 plaque numbers on Vero E6 cells; assay type: cell-based
[2] = Aqueous stability of artemisinin in presence of additives (1H NMR); assay type: physicochemical; conditions: 93° C. for 90 minutes
Protocol: Two solvents were tested, tap water and premade black coffee, and glucose (1 equivalent) was tested as a reductant. All mixtures were heated to 93° C. for 90 minutes in 10 mL glass vials open to the atmosphere. Halfway through heating, 1-2 mL of tap water was added to compensate for evaporation. Following heating, 2 mL ethyl acetate was added, and the biphasic solution was dried using a rotary evaporator with water bath at 40° C. The flask was further dried for three hours under high vacuum. All samples were dissolved in CDCl3 containing 0.5 equivalents of an internal standard (1,2,4,5-tetramethylbenzene) and ^1H NMR performed.

SARS-CoV-2 [3] = experiment: SARS-CoV-2 induced cytopathic effect (CPE) in Vero E6 cells, MTS method; assay type: cell-based; conditions: 72 h

C[C@@H]1CC[C@H]2[C@@H](C)C(=O)O[C@@H]3O[C@@]4(C)CC[C@@H]1[C@]32OO4 [artemisinin]
# of Plaques (SARS-CoV-2 [1]; pretreatment 15 min, dilution 100): 78
# of Plaques (SARS-CoV-2 [1]; pretreatment 15 min, dilution 1,000): 104
# of Plaques (SARS-CoV-2 [1]; pretreatment 15 min, dilution 10,000): 109
plaques observed divided by average of negative control multiplied by 100 (SARS-CoV-2 [1]; pretreatment 15 min, sample 0.22 μg/mL): 95.63
plaques observed divided by average of negative control multiplied by 100 (SARS-CoV-2 [1]; pretreatment 15 min, sample 2.2 μg/mL): 84.06
plaques observed divided by average of negative control multiplied by 100 (SARS-CoV-2 [1]; pretreatment 15 min, sample 22 μg/mL): 80.21
plaques observed divided by average of negative control multiplied by 100 (SARS-CoV-2 [1]; pretreatment 15 min, sample 220 μg/mL): 60.15
# of Plaques (SARS-CoV-2 [1]; pretreatment 30 min, dilution 100): 88
# of Plaques (SARS-CoV-2 [1]; pretreatment 30 min, dilution 1,000): 100
# of Plaques (SARS-CoV-2 [1]; pretreatment 30 min, dilution 10,000): 102
plaques observed divided by average of negative control multiplied by 100 (SARS-CoV-2 [1]; pretreatment 30 min, sample 0.22 μg/mL): 104.88
plaques observed divided by average of negative control multiplied by 100 (SARS-CoV-2 [1]; pretreatment 30 min, sample 2.2 μg/mL): 78.66
plaques observed divided by average of negative control multiplied by 100 (SARS-CoV-2 [1]; pretreatment 30 min, sample 22 μg/mL): 78.66
plaques observed divided by average of negative control multiplied by 100 (SARS-CoV-2 [1]; pretreatment 30 min, sample 220 μg/mL): 67.87
# of Plaques (SARS-CoV-2 [1]; pretreatment 60 min, dilution 100): 96
# of Plaques (SARS-CoV-2 [1]; pretreatment 60 min, dilution 1,000): 120
# of Plaques (SARS-CoV-2 [1]; pretreatment 60 min, dilution 10,000): 100
plaques observed divided by average of negative control multiplied by 100 (SARS-CoV-2 [1]; pretreatment 60 min, sample 0.22 μg/mL): 95.63
plaques observed divided by average of negative control multiplied by 100 (SARS-CoV-2 [1]; pretreatment 60 min, sample 2.2 μg/mL): 77.12
plaques observed divided by average of negative control multiplied by 100 (SARS-CoV-2 [1]; pretreatment 60 min, sample 22 μg/mL): 92.54
plaques observed divided by average of negative control multiplied by 100 (SARS-CoV-2 [1]; pretreatment 60 min, sample 220 μg/mL): 74.04
# of Plaques (SARS-CoV-2 [1]; pretreatment 120 min, dilution 100): 106
plaques observed divided by average of negative control multiplied by 100 (SARS-CoV-2 [1]; pretreatment 120 min, sample 0.22 μg/mL): 103.34
plaques observed divided by average of negative control multiplied by 100 (SARS-CoV-2 [1]; pretreatment 120 min, sample 2.2 μg/mL): 95.63
plaques observed divided by average of negative control multiplied by 100 (SARS-CoV-2 [1]; pretreatment 120 min, sample 22 μg/mL): 103.34
plaques observed divided by average of negative control multiplied by 100 (SARS-CoV-2 [1]; pretreatment 120 min, sample 220 μg/mL): 81.75
loss of artemisinin ([2]; premade black coffee + glucose (1 equivalent)): 19%
degradation of artemisinin ([2]; premade black coffee): 17%
loss of artemisinin ([2]; tap water + glucose (1 equivalent)): 32%

C[C@H]1[C@H](OC(=O)CCC(=O)O)O[C@@H]2O[C@@]3(C)CC[C@H]4[C@H](C)CC[C@@H]1[C@@]24OO3 [artesunate]
EC50 (inhibition of virus-induced CPE) (SARS-CoV-2 [3]): sufficiently low
